Laboratory results from ChEMBL document CHEMBL1201862, “PubChem BioAssay data set” (2004).
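These data come from cells grown in 96-well plates and exposed to compound for 48 hours at five concentrations. GI50: concentration for 50% inhibition of growth.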 Calls of active or inactive are those of the source. No stated cut-off is given here; in the data, active = GI50 up to about 1.1 µM and inactive = higher.

How the values were obtained:
Experiment in all cases: DTP human tumour cell line panel, 48 h
UACC-62 = test system: UACC-62
OVCAR-3 = test system: OVCAR-3
KM12 = test system: KM12
MOLT-4 = test system: MOLT-4
SK-OV-3 = test system: SK-OV-3
HCT-116 = test system: HCT-116
UO-31 = test system: UO-31
NCI-H226 = test system: NCI-H226
A498 = test system: A498
A549 = test system: A549
CAKI-1 = test system: CAKI-1
SF-268 = test system: SF-268
SNB-75 = test system: SNB-75
NCI-H522 = test system: NCI-H522
786-0 = test system: 786-0
HOP-92 = test system: HOP-92
OVCAR-5 = test system: OVCAR-5
Malme-3M = test system: Malme-3M
RXF 393 = test system: RXF 393

Compound | GI50 (UACC-62) | GI50 (OVCAR-3) | GI50 (KM12) | GI50 (MOLT-4) | GI50 (SK-OV-3) | GI50 (HCT-116) | GI50 (UO-31) | GI50 (NCI-H226) | GI50 (A498) | GI50 (A549) | GI50 (CAKI-1) | GI50 (SF-268) | GI50 (SNB-75) | GI50 (NCI-H522) | GI50 (786-0) | GI50 (HOP-92) | GI50 (OVCAR-5) | GI50 (Malme-3M) | GI50 (RXF 393)
Cc1c2n(c(=O)[nH]c1=O)C1OC(CO)C(O2)C1N=[N+]=[N-] (configuration not stated) | > 100 µM (inactive) | > 100 µM (inactive) | > 100 µM (inactive) | > 100 µM (inactive) | > 100 µM (inactive) | > 100 µM (inactive) | > 100 µM (inactive) | > 100 µM (inactive) | 78 µM (inactive) | > 100 µM (inactive) | > 100 µM (inactive) | > 100 µM (inactive) | > 100 µM (inactive) | > 100 µM (inactive) | > 100 µM (inactive) | > 100 µM (inactive) |  |  | 
COC(=O)c1c(C(=O)OC)c2cc(C(=O)c3ccccc3)ccn2c1Cl | 24.9 µM (inactive) | 21.6 µM (inactive) | 24 µM (inactive) | 17.7 µM (inactive) |  | 39.6 µM (inactive) | 28.2 µM (inactive) | 22.3 µM (inactive) |  | 41.5 µM (inactive) |  | 43.2 µM (inactive) | 12.9 µM (inactive) | 19.5 µM (inactive) | 44.6 µM (inactive) |  | 48.4 µM (inactive) | 52.7 µM (inactive) | 23.7 µM (inactive)
O=C1C=C[C@@]23CC1C(O)C[C@H]2C=Cc1ccccc13 (some centres not stated) | 34.8 µM (inactive) | > 100 µM (inactive) | > 100 µM (inactive) | > 100 µM (inactive) | > 100 µM (inactive) | > 100 µM (inactive) | > 100 µM (inactive) | > 100 µM (inactive) | > 100 µM (inactive) | > 100 µM (inactive) | > 100 µM (inactive) | > 100 µM (inactive) | 91.6 µM (inactive) | > 100 µM (inactive) | > 100 µM (inactive) | > 100 µM (inactive) | > 100 µM (inactive) | > 100 µM (inactive) | 
O=[N+]([O-])c1cccc(C2=NOC(C3CCCCC3)C2)c1 (configuration not stated) | > 100 µM (inactive) | > 100 µM (inactive) | > 100 µM (inactive) | > 100 µM (inactive) | > 100 µM (inactive) | > 100 µM (inactive) | > 100 µM (inactive) | > 100 µM (inactive) | > 100 µM (inactive) | > 100 µM (inactive) |  | > 100 µM (inactive) | > 100 µM (inactive) | > 100 µM (inactive) | > 100 µM (inactive) | > 100 µM (inactive) | 92 µM (inactive) | > 100 µM (inactive) | 
CCc1cc(C(=O)OC)cn1C(=N)c1ccc(Cl)cc1 | > 100 µM (inactive) | > 100 µM (inactive) | > 100 µM (inactive) | > 100 µM (inactive) | > 100 µM (inactive) | > 100 µM (inactive) | > 100 µM (inactive) | > 100 µM (inactive) | > 100 µM (inactive) | > 100 µM (inactive) | > 100 µM (inactive) | > 100 µM (inactive) | 87.5 µM (inactive) |  | > 100 µM (inactive) | > 100 µM (inactive) | > 100 µM (inactive) | > 100 µM (inactive) | 
COc1ccccc1N1C(=O)/C(=C\c2ccccc2)SC1c1cc(OC)c(OC)c(OC)c1 (configuration not stated) | 30.2 µM (inactive) |  | 32.1 µM (inactive) | 35 µM (inactive) | 42.3 µM (inactive) | 31.8 µM (inactive) | 45.4 µM (inactive) | > 100 µM (inactive) | 55.6 µM (inactive) | 40.7 µM (inactive) | 34.2 µM (inactive) | 48.5 µM (inactive) |  | 22.2 µM (inactive) | 32.2 µM (inactive) | 34.5 µM (inactive) | 62.5 µM (inactive) | 45.5 µM (inactive) | 
O=[N+]([O-])c1ccc(Sc2c3ccccc3nc3ccccc23)cc1 | > 100 µM (inactive) | > 100 µM (inactive) | > 100 µM (inactive) | > 100 µM (inactive) |  | > 100 µM (inactive) | > 100 µM (inactive) | > 100 µM (inactive) |  | > 100 µM (inactive) | > 100 µM (inactive) | > 100 µM (inactive) | > 100 µM (inactive) | 74.1 µM (inactive) | > 100 µM (inactive) |  | > 100 µM (inactive) | > 100 µM (inactive) | > 100 µM (inactive)
Cc1cnc2c(C)ccc([N+](=O)[O-])c2c1NCCCN(C)C |  | > 100 µM (inactive) | > 100 µM (inactive) | > 100 µM (inactive) | 75.3 µM (inactive) | > 100 µM (inactive) | > 100 µM (inactive) | > 100 µM (inactive) |  | > 100 µM (inactive) | > 100 µM (inactive) | > 100 µM (inactive) |  | > 100 µM (inactive) | > 100 µM (inactive) |  | > 100 µM (inactive) | 73.6 µM (inactive) | 
O=C1c2c(O)cccc2C(C(=O)CCCCCC(=O)C2c3cccc(O)c3C(=O)c3c(O)cccc32)c2cccc(O)c21 | 1.12 µM (active) | 0.938 µM (active) | 1.07 µM (active) | 9.53 µM (inactive) | 0.879 µM (active) | 0.957 µM (active) | 1.15 µM (inactive) | 3.64 µM (inactive) | 4.04 µM (inactive) | 1.03 µM (active) | 4.5 µM (inactive) | 1.04 µM (active) | 1.03 µM (active) | 0.638 µM (active) | 10.6 µM (inactive) | 7.98 µM (inactive) | 3.22 µM (inactive) | 2.39 µM (inactive) | 
C(/C=N/N=C1NCCCN1)=N\N=C1NCCCN1 | > 100 µM (inactive) | > 100 µM (inactive) | > 100 µM (inactive) | > 100 µM (inactive) | > 100 µM (inactive) | > 100 µM (inactive) | > 100 µM (inactive) | > 100 µM (inactive) |  | > 100 µM (inactive) | > 100 µM (inactive) | > 100 µM (inactive) | > 100 µM (inactive) | > 100 µM (inactive) | > 100 µM (inactive) | 56.5 µM (inactive) | > 100 µM (inactive) | > 100 µM (inactive) | 
CCCCCCCCOCC(COC(=O)CCCCCCC)OC(=O)CCCCCCC (configuration not stated) | > 100 µM (inactive) | > 100 µM (inactive) |  | > 100 µM (inactive) | > 100 µM (inactive) | > 100 µM (inactive) | > 100 µM (inactive) | > 100 µM (inactive) | > 100 µM (inactive) | > 100 µM (inactive) | > 100 µM (inactive) | > 100 µM (inactive) |  |  | > 100 µM (inactive) | 51.5 µM (inactive) | > 100 µM (inactive) | > 100 µM (inactive) | 
CC1=CCC(O)C=CC(C)C(O)C(C)C=C(C)C(=O)c2c(O)c(C)cc3c2C(=O)C(N)=C(NC(=O)/C=C\C=C/C=CC(C)C(O)CC1=O)C3=O (configuration not stated) | > 100 µM (inactive) | 64.4 µM (inactive) | > 100 µM (inactive) | 63.7 µM (inactive) | > 100 µM (inactive) | 21.6 µM (inactive) | 63 µM (inactive) | > 100 µM (inactive) | > 100 µM (inactive) | > 100 µM (inactive) | > 100 µM (inactive) | > 100 µM (inactive) | > 100 µM (inactive) | 19.5 µM (inactive) | > 100 µM (inactive) | > 100 µM (inactive) | > 100 µM (inactive) | 30.1 µM (inactive) | 
